According to patent US8633319B2, “7-(1H-pyrazol-4-yl)-1,6-naphthyridine compounds as Syk inhibitors” (Glaxo Group Limited, priority 2010, dated 2014):
Like-named read-outs stand apart in the source and are kept apart here.

How the values were obtained:
[1] = system: Whole blood B cells; experiment: CD69 Whole Blood Assay; assay type: cell-based; settings: Homo sapiens, B-cell, anti-IgM stimulated
Experimental: Whole blood B cells are stimulated ex-vivo using anti-IgM. […] The subsequent autophosphorylation of Syk leads to initiation of a signalling cascade resulting in B cell activation as indicated by expression of the activation marker CD69 on the cell surface. CD20/CD69+ve whole blood B cells are detected by flow cytometry.
100 μl heparinised human blood was added to a 5 ml polypropylene tube containing 1 μl appropriately diluted compound solution and incubated for 25 min at 37° C. with 5% CO2. B cells were stimulated with 10 μl Fab′2 fragments of goat anti-human IgM (43 μg/ml final concentration) for a further 3.5 h under the conditions previously described. The red blood cells were lysed and all other cells fixed by the addition of 2 ml Lyse/Fix buffer for 10 min at room temperature.
The cells were stained using a cocktail of mouse anti-human CD20 FITC and mouse anti-human CD69 PE conjugated antibodies. CD20/CD69+ve B cells present in the sample were detected by flow cytometry.
Compound was prepared as a 10 mM stock in DMSO, further diluted down in DMSO to 1 mM and a dilution series prepared in DMSO using 7 successive 3-fold dilutions to give the final concentration range to be tested of 1×10^−5 to 4.57×10^−9M. Compound dilutions were prepared using the Biomek 2000 automated robotic pipetting system.

[2] = system: Ramos B cells; experiment: Ramos pErk Assay; assay type: cell-based; settings: Homo sapiens, as the hydrochloride salts, anti-IgM stimulated
Experimental: Ramos B cells (human B cells of Burkitt's Lymphoma) are stimulated using anti-IgM. […] The subsequent autophosphorylation of Syk leads to initiation of a signalling cascade resulting in B cell activation via the Erk MAP Kinase pathway. As a result Erk is phosphorylated and following cell lysis is detected by an immune capture assay.
Cells were plated at a density of 2.5×10^5/well in a volume of 25 μl assay medium (RPMI containing 10% heat inactivated foetal calf serum, 1% L-glutamine) in 96 v-well polypropylene plates. 25 μl appropriately diluted compound solution was added and the plate incubated for 30 min at 37° C. with 5% CO2. Cells were stimulated with 5 μl Fab′2 fragments of goat anti-human IgM (5 μg/ml final) for 7 min at 37° C. Cells are lysed by the addition of 55 μL 2×RIPA lysis buffer for 2 h at 4° C. Lysate may be frozen at this point at −80° C.
50 μl cell lysate was transferred to a 96 well MSD plate coated with anti-pErk1/2 (Thr/Tyr:202/204; 185/187) capture antibody and incubated for 16 hours at 4° C. or 3 hours at room temperature. The plate was washed and an anti-pErk detection antibody added (25 μl/well) for 1 hour at room temperature. This was removed, 150 μL MSD read buffer added and the resultant electrochemiluminescence signal measured.
Compound was prepared as a 10 mM stock in DMSO and a dilution series prepared in DMSO using 9 successive 5-fold dilutions. This dilution series was diluted a further 1:100 with assay medium to give the final concentration range to be tested of 5×10^−5 to 2.56×10^−11M. Compound dilutions were prepared using the Biomek 2000 and Biomek Nx automated robotic pipetting systems.

[3] = molecular target: T1, hERG (Homo sapiens, UniProt Q12809); experiment: Cy3B Dofetilide Fluoro-Ligand Binding Assay for hERG; settings: membranes of CHO-K1 cells that express hERG, pH 7.4, probe Cy3b-Dofetilide fluoro-ligand, 1.0 nM, hERG-expressing CHO-K1 membranes
T1 construct: expressed in transfected cells; host or cells: CHO-K1 cells stably expressing human hERG; membrane fraction
T1 sequence (Q12809 whole entry): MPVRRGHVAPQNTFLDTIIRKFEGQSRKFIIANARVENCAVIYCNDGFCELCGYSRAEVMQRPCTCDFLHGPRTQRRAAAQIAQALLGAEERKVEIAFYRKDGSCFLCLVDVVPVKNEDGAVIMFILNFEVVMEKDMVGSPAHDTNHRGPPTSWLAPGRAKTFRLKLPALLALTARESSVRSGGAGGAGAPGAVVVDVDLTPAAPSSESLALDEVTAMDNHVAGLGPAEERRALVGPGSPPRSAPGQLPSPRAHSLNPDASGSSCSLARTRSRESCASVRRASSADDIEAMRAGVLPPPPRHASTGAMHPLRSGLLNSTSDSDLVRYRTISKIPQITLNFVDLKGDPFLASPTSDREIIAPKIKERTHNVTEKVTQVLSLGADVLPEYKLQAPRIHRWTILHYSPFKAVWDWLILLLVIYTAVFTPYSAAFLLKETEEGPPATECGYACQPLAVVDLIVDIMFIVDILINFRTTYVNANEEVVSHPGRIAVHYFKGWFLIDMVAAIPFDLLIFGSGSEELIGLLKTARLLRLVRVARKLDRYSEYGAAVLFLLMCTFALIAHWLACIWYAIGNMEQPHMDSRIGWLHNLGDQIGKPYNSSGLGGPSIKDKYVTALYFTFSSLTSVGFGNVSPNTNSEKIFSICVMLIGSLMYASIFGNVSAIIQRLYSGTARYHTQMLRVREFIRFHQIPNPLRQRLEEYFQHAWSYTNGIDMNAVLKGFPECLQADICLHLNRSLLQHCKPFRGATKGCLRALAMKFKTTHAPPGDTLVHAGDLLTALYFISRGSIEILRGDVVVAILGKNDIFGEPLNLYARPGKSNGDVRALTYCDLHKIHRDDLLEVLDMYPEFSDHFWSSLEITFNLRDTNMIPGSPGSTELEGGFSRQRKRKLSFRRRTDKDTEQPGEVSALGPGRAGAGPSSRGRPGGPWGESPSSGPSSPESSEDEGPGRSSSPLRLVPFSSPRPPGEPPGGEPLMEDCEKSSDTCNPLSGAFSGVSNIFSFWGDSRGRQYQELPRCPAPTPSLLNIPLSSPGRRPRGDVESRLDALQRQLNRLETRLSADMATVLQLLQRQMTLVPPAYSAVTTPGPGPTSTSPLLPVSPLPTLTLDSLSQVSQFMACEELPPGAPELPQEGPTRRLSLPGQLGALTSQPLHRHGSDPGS
Experimental: Compound potencies were determined by a fluoro-ligand^§ (Cy3b-Dofetilide) fluorescence polarisation assay.
hERG-expressing CHO-K1 membranes* (60 μg/ml) were incubated with 1.0 nM fluoro-ligand^§, in assay buffer (25 mM HEPES, 1.2 mM MgCl2, 100 mM KCl and 0.1% pluronic, pH adjusted to 7.4 using 5M KOH). The final potassium concentration in the assay was 100 mM. After 70 min mixing at room temperature, in the dark, 10 μl was dispensed into each well of a black LV Greiner 384-well plate containing 0.1 μl of test compound in DMSO. The plates were left to equilibrate for 2 h before reading on an Acquest™/Analyst™ imager. pIC50 data were generated using from an 11-point inhibition curve (top assay concentration of 50 μM and a 1:3 step-dilution), a […] curve-fit being applied using ABase and XC50 to analyse data and generate curve fits.
Chinese Hamster Ovary (CHO) cells stably expressing the human hERG receptor were grown to 80% confluency before being harvested by trypsinisation and subsequent centrifugation at 500 g for 10 min. Cell pellets were frozen at −80 C before membrane production. The frozen pellet was thawed on ice, re-suspended and homogenised in 10 volumes of membrane buffer (50 mM HEPES, pH 7.4, 1 mM EDTA, 1 mM PMSF, 2×10^-6M Pepstatin A). The membrane suspension was centrifuged for 20 min at 500 g, the pellet discarded and the supernatent spun again at 48,000 g for 30 min. Following the second centrifugation the remaining pellet containing the membrane fraction was re-suspended in an appropriate volume (4 ml for each ml of frozen cell pellet) and assayed for protein concentration.

[4] = as the free base, read-out: average IC50
[5] = hydrochloric acid salts, read-out: average IC50
[6] = hydrochloric acid salts, read-out: average pIC50 (converted)
[7] = form not stated (first list), read-out: average pIC50 (converted)

Structure (SMILES): COCn1cc(-c2cc3ncccc3c(NC[C@]3(F)CCCNC3)n2)cn1 [Example 3, N-{[(3S)-3-Fluoro-3-piperidinyl]methyl}-7-{1-[(methyloxy)methyl]-1H-pyrazol-4-yl}-1,6-naphthyridin-5-amine]
- IC50 [1, 4]: < 1 µM
- IC50 [1, 5]: < 1 µM
- IC50 [1, 6]: ≤ 1 µM
- IC50 [2]: < 1 µM
- IC50 at 2 h [3, 4]: > 10 µM
- IC50 at 2 h [3, 7]: > 10 µM
- IC50 at 2 h [3, 5]: > 20 µM
- IC50 at 2 h [3, 6]: > 10 µM

Structure (SMILES): CC(C)(C)n1cc(-c2cc3ncccc3c(NC[C@]3(F)CCCNC3)n2)cn1 [Example 2, 7-[1-(1,1-Dimethylethyl)-1H-pyrazol-4-yl]-N-{[(3S)-3-fluoro-3-piperidinyl]methyl}-1,6-naphthyridin-5-amine]
- IC50 [1, 4]: < 1 µM
- IC50 [1, 5]: < 1 µM
- IC50 [1, 6]: ≤ 1 µM
- IC50 [2]: < 1 µM
- IC50 at 2 h [3, 4]: > 10 µM
- IC50 at 2 h [3, 7]: > 10 µM
- IC50 at 2 h [3, 5]: > 20 µM
- IC50 at 2 h [3, 6]: > 10 µM

Structure (SMILES): CCn1cc(-c2cc3ncccc3c(OC[C@]3(F)CCCNC3)n2)cn1 [Example 4, 7-(1-Ethyl-1H-pyrazol-4-yl)-5-({[(3S)-3-fluoro-3-piperidinyl]methyl}oxy)-1,6-naphthyridine]
- IC50 [1, 4]: < 1 µM
- IC50 [1, 5]: < 1 µM
- IC50 [1, 6]: ≤ 1 µM
- IC50 [2]: < 1 µM
- IC50 at 2 h [3, 4]: > 10 µM
- IC50 at 2 h [3, 7]: > 10 µM
- IC50 at 2 h [3, 5]: > 20 µM
- IC50 at 2 h [3, 6]: > 10 µM

Structure (SMILES): CCn1cc(-c2cc3ncccc3c(NC[C@]3(F)CCCNC3)n2)cn1 [Example 1, 7-(1-Ethyl-1H-pyrazol-4-yl)-N-{[(3S)-3-fluoro-3-piperidinyl]methyl}-1,6-naphthyridin-5-amine]
- IC50 [1, 4]: < 1 µM
- IC50 [1, 5]: < 1 µM
- IC50 [1, 6]: ≤ 1 µM
- IC50 [2]: < 1 µM
- IC50 at 2 h [3, 4]: > 10 µM
- IC50 at 2 h [3, 7]: > 10 µM
- IC50 at 2 h [3, 5]: > 20 µM
- IC50 at 2 h [3, 6]: > 10 µM
